Measured values published in publication PMC6407917, “Identification of GSK3186899/DDD853651 as a Preclinical Development Candidate for the Treatment of Visceral Leishmaniasis” (Journal of Medicinal Chemistry, 2018).
pIC50: −log10 of the molar value.

Assays:
Experiment in all cases: biochemical
Design in all cases: species or system HEK293/K-562/placenta mixed human extract; Kinobeads chemoproteomic competition binding, quantified by TMT LC-MS/MS, dose response up to 20 uM
RPS6KA6 = RPS6KA6 (Homo sapiens, UniProt Q9UK32)
PRKD3 = PRKD3 (Homo sapiens, UniProt O94806)
Chain of PRKD3 (O94806 whole entry): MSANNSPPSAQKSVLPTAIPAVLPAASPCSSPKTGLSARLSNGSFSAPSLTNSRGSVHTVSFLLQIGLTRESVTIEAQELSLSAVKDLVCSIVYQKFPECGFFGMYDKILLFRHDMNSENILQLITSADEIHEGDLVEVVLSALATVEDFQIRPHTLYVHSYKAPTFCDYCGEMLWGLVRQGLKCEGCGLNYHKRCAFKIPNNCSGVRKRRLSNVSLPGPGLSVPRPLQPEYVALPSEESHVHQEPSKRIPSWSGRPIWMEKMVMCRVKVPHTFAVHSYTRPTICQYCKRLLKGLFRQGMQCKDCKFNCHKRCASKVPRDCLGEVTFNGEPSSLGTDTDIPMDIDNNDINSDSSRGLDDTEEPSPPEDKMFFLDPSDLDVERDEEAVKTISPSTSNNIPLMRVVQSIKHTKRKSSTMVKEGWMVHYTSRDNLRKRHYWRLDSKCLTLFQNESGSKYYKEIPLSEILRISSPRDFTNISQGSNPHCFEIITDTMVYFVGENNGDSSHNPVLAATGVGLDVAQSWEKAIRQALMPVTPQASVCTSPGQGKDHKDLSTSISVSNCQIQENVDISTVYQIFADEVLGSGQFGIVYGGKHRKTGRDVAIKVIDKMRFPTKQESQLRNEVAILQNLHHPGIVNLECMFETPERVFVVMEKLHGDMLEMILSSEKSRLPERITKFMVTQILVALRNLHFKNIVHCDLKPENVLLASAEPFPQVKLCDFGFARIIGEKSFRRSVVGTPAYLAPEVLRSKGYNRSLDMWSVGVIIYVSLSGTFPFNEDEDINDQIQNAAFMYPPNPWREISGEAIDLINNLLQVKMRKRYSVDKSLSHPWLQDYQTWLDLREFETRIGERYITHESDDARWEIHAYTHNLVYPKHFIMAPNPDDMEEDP

JAK3 = JAK3 (Homo sapiens, UniProt P52333)
Chain of JAK3 (P52333 whole entry): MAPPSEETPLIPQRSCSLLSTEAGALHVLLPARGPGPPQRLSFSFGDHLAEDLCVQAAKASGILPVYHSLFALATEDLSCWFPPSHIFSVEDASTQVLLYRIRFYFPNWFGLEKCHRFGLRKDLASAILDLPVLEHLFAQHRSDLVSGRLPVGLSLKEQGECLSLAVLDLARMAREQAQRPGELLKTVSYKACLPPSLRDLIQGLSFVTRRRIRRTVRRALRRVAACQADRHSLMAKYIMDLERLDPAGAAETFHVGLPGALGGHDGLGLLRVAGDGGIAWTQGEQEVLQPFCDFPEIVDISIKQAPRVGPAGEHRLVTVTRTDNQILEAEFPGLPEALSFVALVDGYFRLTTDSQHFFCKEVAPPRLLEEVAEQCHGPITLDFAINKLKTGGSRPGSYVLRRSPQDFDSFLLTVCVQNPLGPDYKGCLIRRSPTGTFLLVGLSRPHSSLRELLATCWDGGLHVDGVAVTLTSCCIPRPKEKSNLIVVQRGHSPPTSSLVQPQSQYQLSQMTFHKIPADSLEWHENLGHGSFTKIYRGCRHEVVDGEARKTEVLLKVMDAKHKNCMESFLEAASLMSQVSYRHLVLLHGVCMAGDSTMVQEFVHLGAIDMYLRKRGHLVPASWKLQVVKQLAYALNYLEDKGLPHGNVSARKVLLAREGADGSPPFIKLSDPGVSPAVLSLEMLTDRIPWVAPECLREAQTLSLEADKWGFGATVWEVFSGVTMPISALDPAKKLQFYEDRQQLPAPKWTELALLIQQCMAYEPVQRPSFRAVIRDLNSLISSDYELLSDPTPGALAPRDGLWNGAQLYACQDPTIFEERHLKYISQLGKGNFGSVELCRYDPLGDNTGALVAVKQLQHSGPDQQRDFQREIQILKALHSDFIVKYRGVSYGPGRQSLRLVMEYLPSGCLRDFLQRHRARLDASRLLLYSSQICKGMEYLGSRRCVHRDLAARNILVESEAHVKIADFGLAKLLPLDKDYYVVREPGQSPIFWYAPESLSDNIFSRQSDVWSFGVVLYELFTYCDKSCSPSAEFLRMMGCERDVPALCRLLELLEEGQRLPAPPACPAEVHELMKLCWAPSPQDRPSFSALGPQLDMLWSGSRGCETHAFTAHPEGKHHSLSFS

PKN2 = PKN2 (Homo sapiens, UniProt Q16513)
GSK3B = GSK3B (Homo sapiens, UniProt P49841)
Chain of GSK3B (P49841 whole entry): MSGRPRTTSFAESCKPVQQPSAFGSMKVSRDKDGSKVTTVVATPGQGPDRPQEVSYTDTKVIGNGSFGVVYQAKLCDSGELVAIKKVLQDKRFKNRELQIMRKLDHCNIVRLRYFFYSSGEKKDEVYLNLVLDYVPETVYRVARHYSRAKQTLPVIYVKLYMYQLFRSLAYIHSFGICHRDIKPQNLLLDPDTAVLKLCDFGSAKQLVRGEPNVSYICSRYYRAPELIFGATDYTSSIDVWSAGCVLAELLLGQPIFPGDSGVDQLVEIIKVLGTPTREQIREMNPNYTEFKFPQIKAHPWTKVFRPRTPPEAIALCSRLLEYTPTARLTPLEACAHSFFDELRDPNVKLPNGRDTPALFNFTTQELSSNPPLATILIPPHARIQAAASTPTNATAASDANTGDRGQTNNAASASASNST

STK38L = STK38L (Homo sapiens, UniProt Q9Y2H1)
EPHA2 = EPHA2 (Homo sapiens, UniProt P29317)
FN3K = FN3K (Homo sapiens, UniProt Q9H479)
TESK1 = TESK1 (Homo sapiens, UniProt Q15569)
RPS6KB1 = RPS6KB1 (Homo sapiens, UniProt P23443)
Chain of RPS6KB1 (P23443 whole entry): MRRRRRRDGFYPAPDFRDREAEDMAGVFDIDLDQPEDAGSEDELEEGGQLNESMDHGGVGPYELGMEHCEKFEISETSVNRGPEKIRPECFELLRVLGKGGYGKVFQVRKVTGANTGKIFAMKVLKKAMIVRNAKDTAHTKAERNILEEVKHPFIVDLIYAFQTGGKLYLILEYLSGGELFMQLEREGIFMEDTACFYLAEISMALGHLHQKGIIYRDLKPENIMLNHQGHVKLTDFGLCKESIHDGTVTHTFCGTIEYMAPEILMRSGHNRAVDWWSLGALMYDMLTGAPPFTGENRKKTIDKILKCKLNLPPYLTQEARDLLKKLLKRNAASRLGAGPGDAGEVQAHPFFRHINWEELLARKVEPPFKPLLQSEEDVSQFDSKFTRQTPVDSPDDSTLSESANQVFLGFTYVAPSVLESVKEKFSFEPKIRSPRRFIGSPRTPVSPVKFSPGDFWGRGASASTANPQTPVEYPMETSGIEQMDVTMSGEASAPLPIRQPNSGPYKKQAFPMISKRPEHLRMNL

TTK = TTK (Homo sapiens, UniProt P33981)
Chain of TTK (P33981 whole entry): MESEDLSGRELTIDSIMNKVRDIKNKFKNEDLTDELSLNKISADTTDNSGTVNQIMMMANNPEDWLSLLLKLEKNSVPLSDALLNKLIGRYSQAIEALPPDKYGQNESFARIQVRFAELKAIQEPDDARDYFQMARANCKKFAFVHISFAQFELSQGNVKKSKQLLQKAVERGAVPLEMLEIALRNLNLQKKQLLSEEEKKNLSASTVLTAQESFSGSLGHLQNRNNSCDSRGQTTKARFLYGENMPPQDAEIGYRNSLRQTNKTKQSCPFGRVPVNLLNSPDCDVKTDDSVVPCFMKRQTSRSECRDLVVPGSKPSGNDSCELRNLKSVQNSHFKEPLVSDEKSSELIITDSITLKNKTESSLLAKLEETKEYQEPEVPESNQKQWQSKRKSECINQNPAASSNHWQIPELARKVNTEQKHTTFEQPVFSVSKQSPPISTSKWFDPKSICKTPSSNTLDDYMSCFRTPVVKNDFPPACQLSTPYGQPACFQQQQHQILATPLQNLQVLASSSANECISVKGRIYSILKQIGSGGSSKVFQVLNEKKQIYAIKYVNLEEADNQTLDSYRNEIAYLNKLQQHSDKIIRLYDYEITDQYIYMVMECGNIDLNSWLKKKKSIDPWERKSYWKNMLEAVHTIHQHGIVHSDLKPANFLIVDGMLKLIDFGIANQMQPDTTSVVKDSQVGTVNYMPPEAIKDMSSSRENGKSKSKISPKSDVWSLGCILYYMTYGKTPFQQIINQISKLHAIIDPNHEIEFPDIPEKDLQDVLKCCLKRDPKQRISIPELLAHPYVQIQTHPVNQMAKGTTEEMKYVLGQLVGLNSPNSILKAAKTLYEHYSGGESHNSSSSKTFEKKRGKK

MAP4K5 = MAP4K5 (Homo sapiens, UniProt Q9Y4K4)
MAP3K3 = MAP3K3 (Homo sapiens, UniProt Q99759)
EPHB6 = EPHB6 (Homo sapiens, UniProt O15197)
CHUK = CHUK (Homo sapiens, UniProt O15111)
Chain of CHUK (O15111 whole entry): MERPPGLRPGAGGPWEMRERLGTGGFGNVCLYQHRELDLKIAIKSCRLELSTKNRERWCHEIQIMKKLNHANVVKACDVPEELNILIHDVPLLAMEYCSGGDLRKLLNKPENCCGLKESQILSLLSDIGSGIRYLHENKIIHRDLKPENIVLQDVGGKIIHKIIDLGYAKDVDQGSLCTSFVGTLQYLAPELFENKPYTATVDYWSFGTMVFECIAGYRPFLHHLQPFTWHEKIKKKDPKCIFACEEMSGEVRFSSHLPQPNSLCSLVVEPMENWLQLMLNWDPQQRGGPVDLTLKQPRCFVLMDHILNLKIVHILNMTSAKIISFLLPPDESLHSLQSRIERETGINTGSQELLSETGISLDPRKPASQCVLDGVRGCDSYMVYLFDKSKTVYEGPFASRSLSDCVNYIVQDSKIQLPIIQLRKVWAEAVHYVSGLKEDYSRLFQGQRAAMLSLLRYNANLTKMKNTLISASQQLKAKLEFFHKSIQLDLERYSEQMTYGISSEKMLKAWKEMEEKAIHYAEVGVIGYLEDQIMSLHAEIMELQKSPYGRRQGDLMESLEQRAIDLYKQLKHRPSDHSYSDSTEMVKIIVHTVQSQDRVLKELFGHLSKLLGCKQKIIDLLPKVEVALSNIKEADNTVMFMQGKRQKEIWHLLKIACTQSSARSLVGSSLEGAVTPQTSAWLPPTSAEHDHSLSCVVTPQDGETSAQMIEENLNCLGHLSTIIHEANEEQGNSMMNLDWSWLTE

BRSK2 = BRSK2 (Homo sapiens, UniProt Q8IWQ3)
AAK1 = AAK1 (Homo sapiens, UniProt Q2M2I8)
IKBKB = IKBKB (Homo sapiens, UniProt O14920)
ACVR1 = ACVR1 (Homo sapiens, UniProt Q04771)
Chain of ACVR1 (Q04771 whole entry): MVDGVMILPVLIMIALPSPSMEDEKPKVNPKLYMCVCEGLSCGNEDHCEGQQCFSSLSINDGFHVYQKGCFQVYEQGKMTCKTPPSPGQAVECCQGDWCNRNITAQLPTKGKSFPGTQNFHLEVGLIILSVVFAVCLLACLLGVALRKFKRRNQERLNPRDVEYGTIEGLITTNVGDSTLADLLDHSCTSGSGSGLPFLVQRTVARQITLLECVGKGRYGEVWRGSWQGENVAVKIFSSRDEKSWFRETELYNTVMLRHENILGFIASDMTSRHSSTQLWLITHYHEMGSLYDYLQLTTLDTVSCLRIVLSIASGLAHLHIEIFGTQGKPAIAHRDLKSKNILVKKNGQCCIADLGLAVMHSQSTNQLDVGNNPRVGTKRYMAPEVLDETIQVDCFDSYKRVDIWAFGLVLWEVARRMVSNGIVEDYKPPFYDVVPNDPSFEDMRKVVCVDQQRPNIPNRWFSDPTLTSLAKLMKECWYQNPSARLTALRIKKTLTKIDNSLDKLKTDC

MKNK1 = MKNK1 (Homo sapiens, UniProt Q9BUB5)
DDR1 = DDR1 (Homo sapiens, UniProt Q08345)

- pIC50 (RPS6KA6): ≤ 4.70
- pIC50 (PRKD3): ≤ 4.70
- pIC50 (JAK3): ≤ 4.70
- pIC50 (PKN2): ≤ 4.70
- pIC50 (GSK3B): ≤ 4.70
- pIC50 (STK38L): ≤ 4.70
- pIC50 (EPHA2): ≤ 4.70
- pIC50 (FN3K): ≤ 4.70
- pIC50 (TESK1): ≤ 4.70
- pIC50 (RPS6KB1): ≤ 4.70
- pIC50 (TTK): ≤ 4.70
- pIC50 (MAP4K5): ≤ 4.70
- pIC50 (MAP3K3): ≤ 4.70
- pIC50 (EPHB6): ≤ 4.70
- pIC50 (CHUK): ≤ 4.70
- pIC50 (BRSK2): ≤ 4.70
- pIC50 (AAK1): ≤ 4.70
- pIC50 (IKBKB): ≤ 4.70
- pIC50 (ACVR1): ≤ 4.70
- pIC50 (MKNK1): ≤ 4.70
- pIC50 (DDR1): ≤ 4.70
SMILES: COc1ccccc1-c1n[nH]c2nc(N[C@H]3CC[C@H](NS(=O)(=O)CCC(F)(F)F)CC3)nc(OC)c12 [compound 31, 3,3,3-Trifluoro-N-(trans-4-((4-methoxy-3-(2-methoxyphenyl)-1H-pyrazolo[3,4-d]pyrimidin-6-yl)amino)cyclohexyl)propane-1-sulfonamide]
